According to patent US20230167121A1, “SUBSTITUTED {1,2,4,} TRIAZOLO{1,5-A} PYRIMIDINE COMPOUNDS AND USE IN STABILIZING MICROTUBULES” (THE TRUSTEES OF THE UNIVERSITY OF PENNSYLVANIA, priority 2020, published 2023):
Where “and” joins values, the source holds several entries; their conditions need not be identical. Equal entries are not always repeated. Structures can show the parent of a compound that is named as a salt. Where two headings read alike, the source gives them in different places. Blank lines part the entries; values can stand above or below the compound they belong to.

Assays:
MTs [1] = details: versus vincristine, taxol, colchicine; cited from earlier work
total α-tubulin = experiment: cell-based assay of MT-stabilization: total α-tubulin in QBI293 cell lysates by ELISA; details: QB1293 cells
Description: (§1) All test compounds were evaluated in a previously described cell-based assay of MT-stabilization (see Kovalevich, J., et al. (2016) Characterization of Brain-Penetrant Pyrimidine-Containing Molecules with Differential Microtubule-Stabilizing Activities Developed as Potential Therapeutic Agents for Alzheimer's Disease and Related Tauopathies. J Pharmacol Exp Ther 357, 432-450, incorporated herein by reference), in which compound-dependent changes in tubulin polymerization and total tubulin levels were determined after 4 h of incubation of QBI293 cells with 1 and 10 μM compound via quantification of acetylated α-tubulin and total tubulin in cell lysates by ELISA.
(§2) Novel C6 nitrile- and alkyne-substituted triazolopyrimidine examples that have improved in vitro activity relative to previously described examples, with the general structure depicted in Formula I. The activity of the novel C6-nitrile substituted compounds were tested in a previously described cellular assay of MT-stabilization (Kovalevich, J., et al. (2016)). As summarized in Table 2. below, eighteen examples were synthesized and tested. In all cases, these compounds were confirmed to be active Class I triazolopyrimidines. […] Table 2 provides fold-changes in acetylated α-tubulin and total α-tubulin levels in QB1293 cells after 4 h incubation with test compounds at either 1 or 10 μM. Data are expressed as the fold-change relative to vehicle-treated cells. *p<0.05 and **p<0.01 by one-way ANOVA.
(§3) Compounds produced according to the preceding synthetic schemes were for microtubule stabilization. Fold-changes in acetylated α-tubulin (AcTub) and α-tubulin (α-Tub) levels in QB1293 cells after 4 h incubation with test compounds at either 1 or 10 μM. Reported values for AcTub and α-Tub represent the fold-change over control (DMSO)-treated cells (*p<0.05 and **p<0.01 by one-way ANOVA); numbers in parentheses represent the fold-change of AcTub over positive control-treated cells (i.e., 100 nM of cevipabulin). Changes of +/−15% of control are deemed to be within the day-to-day assay variability and non-significant.

B/P of Table 4 = details: in vivo
acetylated α-tubulin = experiment: cell-based assay of MT-stabilization: acetylated α-tubulin in QBI293 cell lysates by ELISA; details: for fold induction at 1 µM: QBI293
Description: as §1, §2, §3

MTs [2] = details: cited from earlier work
[3] = Plasma and brain compound determinations (LC-MS/MS); format: in vivo; details: CD1 mice, 2.5 mg/kg each, one hour after dosing; for concentration at 1 h / Kp at 1 h: CD1, mouse, 2.5 mg/kg
Description: CD1 mice (n=3) were dosed concurrently with CNDR-51990 and CNDR-51993 (representing a 1:1 mixture of two diastereoisomers, 52017 (67) and 52016 (68)) at 2.5 mg/kg each). One hour after dosing, mice were euthanized and blood collected, followed by perfusion with saline. Mouse brains were homogenized in 10 mM ammonium acetate, pH 5.7 (1:2; w/v) using a handheld sonic homogenizer. Mouse plasma was obtained from blood that was collected into a 1.5 ml tube containing 0.5M EDTA solution and which was centrifuged for 10 minutes at 4500 g at 4° C. Aliquots (50 μl) of brain homogenates or plasma were mixed with 0.2 ml of acetonitrile, centrifuged at 15,000×g, and the resulting supernatant was used for subsequent LC-MS/MS analysis. The LC-MS/MS analysis was conducted by Inotiv, Inc., utilizing methods essentially as previously described (Lou et al., J. Med. Chem. 57:6116-27, 2014).

[4] = QBI293, 4 h, Table 4, 4 h, 1 μM, read-out: α-Tub l μM (fold-change over control (DMSO)-treated cells)
[5] = QBI293, 4 h, Table 4, 4 h, 10 μM, read-out: α-Tub 10 μM (fold-change over control (DMSO)-treated cells)
[6] = Table 4, QB1293 cells, 4 h, 1 μM, *p<0.05, **p<0.01, read-out: AcTub 1 μM (fold-change over control (DMSO)-treated cells)
[7] = QBI293, 4 h, 4 h incubation, 1 μM compound, relative to vehicle-treated cells, read-out: α-Tub 1 μM (fold-change in total α-tubulin)
[8] = QBI293, 4 h, 4 h incubation, 10 μM compound, relative to vehicle-treated cells, read-out: α-Tub 10 μM (fold-change in total α-tubulin)
[9] = dosed concurrently, individual animals 1-3, listed as 51990 (70)

Compound: CNCCCOc1cc(F)c(-c2c(Cl)nc3ncnn3c2N[C@@H](C)C(F)(F)F)c(F)c1 [Cevipabulin]
competition for binding to MTs (MTs [1]): competes with vincristine but not taxol or colchicine

Kp (B/P of Table 4): 0.47
Compound: C[C@@H](Nc1c(-c2c(F)cc(C#CCCO)cc2F)c(Cl)nc2ncnn12)C(C)(C)C [TAL-600, (R)-4-(4-(5-chloro-7-((3,3-dimethylbutan-2-yl)amino)-[1,2,4]triazolo[1,5-a]pyrimidin-6-yl)-3,5-difluorophenyl)but-3-yn-1-ol]
fold induction at 1 µM (total α-tubulin; [4]): 0.98
fold induction at 10 µM (total α-tubulin; [5]): 0.98

Compound: CC(C)[C@@H](C)Nc1c(-c2c(F)cc(C#CCCCO)cc2F)c(Cl)nc2ncnn12 [TAL-599, (R)-5-(4-(5-chloro-7-((3-methylbutan-2-yl)amino)-[1,2,4]triazolo[1,5-a]pyrimidin-6-yl)-3,5-difluorophenyl)pent-4-yn-1-ol]
fold induction at 1 µM (total α-tubulin; [4]): 1
fold induction at 1 µM (acetylated α-tubulin; [6]): 2.6

Compound: CC(C)[C@@H](Nc1c(-c2c(F)cc(C#N)cc2F)c(Cl)nc2ncnn12)C(F)(F)F [Compound 62, (R)-4-(5-chloro-7-((1,1,1-trifluoro-3-methylbutan-2-yl)amino)-[1,2,4]triazolo[1,5-a]pyrimidin-6-yl)-3,5-difluorobenzonitrile]
fold induction at 1 µM (total α-tubulin; [7]): 1.02
fold induction at 10 µM (total α-tubulin; [8]): 1.01
fold induction at 1 µM (acetylated α-tubulin; QB1293 cells, 4 h incubation, 1 μM compound, relative to vehicle-treated cells, *p<0.05, **p<0.01, read-out: AcTub l μM (fold-change in acetylated α-tubulin)): 0.99 ± 0.06

Compound: C[C@@H](Nc1c(-c2c(F)cc(C#CCCN)cc2F)c(Cl)nc2ncnn12)C(C)(C)C [TAL-580, (R)-6-(4-(4-aminobut-1-yn-1-yl)-2,6-difluorophenyl)-5-chloro-N-(3,3-dimethylbutan-2-yl)-[1,2,4]triazolo[1,5-a]pyrimidin-7-amine hydrochloride]
fold induction at 1 µM (total α-tubulin; [4]): 0.96
fold induction at 10 µM (total α-tubulin; [5]): 0.91
Kp (B/P of Table 4): 1.04

Compound: CC(C)[C@@H](C)Nc1c(-c2ccc(C#N)cc2F)c(Cl)nc2ncnn12 [Compound 67, (R)-4-(5-chloro-7-((3-methylbutan-2-yl)amino)-[1,2,4]triazolo[1,5-a]pyrimidin-6-yl)-3-fluorobenzonitrile]
fold induction at 1 µM (total α-tubulin; [7]): 0.99
fold induction at 10 µM (total α-tubulin; [8]): 0.93
AcTub l μM (fold-change in acetylated α-tubulin) (acetylated α-tubulin; QB1293 cells, 4 h incubation, 1 μM compound, relative to vehicle-treated cells, *p<0.05, **p<0.01, listed as 52017 (67)): 2.79 +/− 1.11 fold-change

Compound: CO[C@H]1C[C@H]2CC[C@@H](C1)N2c1c(-c2c(F)cc(F)cc2F)c(Cl)nc2ncnn12 [Compound 2]
binding to MTs / unpolymerized tubulin heterodimers (MTs [2]): binds exclusively to MTs and not to unpolymerized tubulin heterodimers

Compound: 4-(5-chloro-7-(piperidin-1-yl)-[1,2,4]triazolo[1,5-a]pyrimidin-6-yl)-3,5-difluorobenzonitrile [Compound 74]
α-Tub 1 μM (fold-change in total α-tubulin) (total α-tubulin; 4 h incubation, 1 μM compound, relative to vehicle-treated cells): 0.98 +/− 0.02 fold-change
α-Tub 10 μM (fold-change in total α-tubulin) (total α-tubulin; 4 h incubation, 10 μM compound, relative to vehicle-treated cells): 0.95 +/− 0.03 fold-change
Class (acetylated α-tubulin; Table 2, triazolopyrimidine MT-activity class): 1

Kp (B/P of Table 4): 0.46
Compound: [2H]C([2H])(O)CC#Cc1cc(F)c(-c2c(Cl)nc3ncnn3c2N[C@H](C)C(C)(C)C)c(F)c1 [TAL-651, (R)-4-(4-(5-chloro-7-((3,3-dimethylbutan-2-yl)amino)-[1,2,4]triazolo[1,5-a]pyrimidin-6-yl)-3,5-difluorophenyl)but-3-yn-1,1-d2-1-ol]
fold induction at 1 µM (total α-tubulin; [4]): 1.02
fold induction at 10 µM (total α-tubulin; [5]): 1.01

Compound: Cc1nc2nc(Cl)c(-c3c(F)cc(C#CCCO)cc3F)c(N(C)[C@H](C)C(C)C)n2n1 [TAL-665, (R)-4-(4-(5-chloro-2-methyl-7-(methyl(3-methylbutan-2-yl)amino)-[1,2,4]triazolo[1,5-a]pyrimidin-6-yl)-3,5-difluorophenyl)but-3-yn-1-ol]
fold induction at 1 µM (total α-tubulin; [4]): 0.91
fold induction at 10 µM (total α-tubulin; [5]): 0.96
fold induction at 1 µM (acetylated α-tubulin; [6]): 1.05

concentration at 1 h ([3]; brain, dosed concurrently, individual animals 1-3, read-out: Brain Concentration): 158 ng/g
concentration at 1 h ([3]; brain, dosed concurrently, mean, n=3, read-out: Brain Concentration, Mean): 183 ng/g
Kp at 1 h ([3]; brain, individual animals 1-3, read-out: Brain/Plasma): 0.9
Kp at 1 h ([3]; brain, mean, n=3, read-out: Brain/Plasma, Mean): 1.21
concentration at 1 h ([3]; plasma, dosed concurrently, individual animals 1-3, read-out: Plasma Concentration): 175 ng/mL
concentration at 1 h ([3]; plasma, dosed concurrently, mean, n=3, read-out: Plasma Concentration, Mean): 151 ng/mL
Brain Concentration [3, 9]: 186 ng/g and 206 ng/g
Plasma Concentration [3, 9]: 133 ng/mL and 146 ng/mL
Brain/Plasma ([3]; individual animals 1-3, listed as 51990 (70)): 1.40 and 1.41
Compound: C[C@@H](Nc1c(-c2ccc(C#N)cc2F)c(Cl)nc2ncnn12)C(C)(C)C [Compound 70, (R)-4-(5-Chloro-7-((3,3-dimethylbutan-2-yl)amino)-[1,2,4]triazolo[1,5-a]pyrimidin-6-yl)-3-fluorobenzonitrile]
fold induction at 1 µM (total α-tubulin; [7]): 0.86
fold induction at 10 µM (total α-tubulin; [8]): 0.93
AcTub 10 μM (fold-change in acetylated α-tubulin) (acetylated α-tubulin; QB1293 cells, 4 h incubation, 10 μM compound, relative to vehicle-treated cells, *p<0.05, **p<0.01): 7.67 ± 0.70 fold-change

Kp (B/P of Table 4): 0.44
Compound: CC(C)[C@@H](C)Nc1c(-c2c(F)cc(C#CCCO)cc2F)c(Cl)nc2ncnn12 [TAL-598, (R)-4-(4-(5-chloro-7-((3-methylbutan-2-yl)amino)-[1,2,4]triazolo[1,5-a]pyrimidin-6-yl)-3,5-difluorophenyl)but-3-yn-1-ol]
fold induction at 1 µM (total α-tubulin; [4]): 0.92

Compound: C[C@@H](Nc1c(-c2c(F)cc(C#CCN(C)C)cc2F)c(Cl)nc2ncnn12)C(C)(C)C [TAL-555, (R)-5-chloro-6-(4-(3-(dimethylamino)prop-1-yn-1-yl)-2,6-difluorophenyl)-N-(3,3-dimethylbutan-2-yl)-[1,2,4]triazolo[1,5-a]pyrimidin-7-amine]
fold induction at 1 µM (total α-tubulin; QBI293, Table 4, 4 h, 1 μM, read-out: α-Tub l μM (fold-change over control (DMSO)-treated cells)): 1
fold induction at 10 µM (total α-tubulin; QBI293, Table 4, 4 h, 10 μM, read-out: α-Tub 10 μM (fold-change over control (DMSO)-treated cells)): 0.84
fold induction at 1 µM (acetylated α-tubulin; [6]): 1.36

Compound: C[C@H](Nc1c(-c2c(F)cc(I)cc2F)c(Cl)nc2ncnn12)C(F)(F)F [TAL-640]
fold induction at 1 µM (total α-tubulin; [4]): 1.01
fold induction at 10 µM (total α-tubulin; [5]): 0.93
fold induction at 1 µM (acetylated α-tubulin; [6]): 1.9
